Reference: patent US20070208077A1, “Adiponectin Enhancer” (priority 2004, published 2007)
Several values for one entry are separate records, joined by “and”; a condition that tells them apart may be missing. Identical values can stand only once.

Assays:
3T3-L1 cells = assay: Effect of inducing size reduction of adipocytes in pre-differentiated 3T3-L1 cell cultures; format: cell-based, mouse; details: sesamin 50 μM, 3T3-L1 cells pre-differentiated to adipocytes, 8 days of culturing, vs control
adiponectin mRNA = assay: Cellular adiponectin mRNA level by quantitative RT-PCR in 3T3-L1 adipocytes; format: cell-based, mouse; details: sesamin 50 μM, 8 days of culturing
Description: (§1) Mouse-derived 3T3-L1 cells were treated for 42 hours in culturing solution containing insulin, dexamethasone and isobutylxanthine, for differentiation to adipocytes. The culture solution was removed and immediately combined with sesamin-free culturing solution (control) or culturing solution containing sesamin at a final concentration of 50 μM (sesamin), and after culturing for 48 hours, the culture solution was exchanged and culturing was continued for 6 days. The cell culturing was carried out in an incubator controlled to 5% CO2 gas-95% air at a temperature of 37° C. The cellular mRNA levels for adiponectin and TNFα were measured by quantitative RT-PCR using CYBR-Green (BMC Biotechnol. 3, 18, 2003).

TNFα mRNA = assay: Cellular TNFα mRNA level by quantitative RT-PCR in 3T3-L1 adipocytes; format: cell-based, mouse; details: sesamin 50 μM, 8 days of culturing, vs control
Description: as §1

adiponectin = assay: Adiponectin production by 3T3-L1 adipocytes, ELISA of culture solution; format: cell-based, mouse; details: sesamin 50 μM, vs control
Description: as §1, with “The” for “The cellular mRNA levels for”, “concentrations in the culture solutions” for “and TNFα”, “Enzyme-Linked ImmunoSorbent Assay (Mouse/Rat Adiponectin ELISA Kit, Otsuka Pharmaceutical).” for “quantitative RT-PCR using CYBR-Green (BMC Biotechnol. 3, 18, 2003).”

Zucker fatty rats = assay: Plasma adiponectin concentration of Zucker fatty rats, ELISA; format: in vivo, rat; details: male Zucker fatty rats, 0.1% sesamin in AIN-93G feed for four weeks, after overnight starving; control feed 6.06 ± 0.48
Description: The rats were divided into two groups with five rats per group, with the first group being freely given AIN-93G (growth stage feed, product of Nihon Crea) as the control group and the second group being freely given feed comprising 0.1% sesamin added to AIN-93G, for a four week period. After four weeks, blood was sampled after overnight starving, and the plasma was separated. The plasma adiponectin concentrations were assayed using an Enzyme-Linked ImmunoSorbent Assay (Mouse/Rat Adiponectin ELISA Kit, product of Otsuka Pharmaceutical).

c1cc2c(cc1[C@H]1OC[C@H]3[C@@H]1CO[C@@H]3c1ccc3c(c1)OCO3)OCO2 [sesamin]
influence on adipocyte size (3T3-L1 cells): numerous small adipocytes | adiponectin mRNA levels in the adipocytes, increase with respect to the control group (adiponectin mRNA): 7 fold | TNFα mRNA levels in the adipocytes (TNFα mRNA): decreased | increase of adiponectin concentration in the cell cultured medium (adiponectin): 1.6 fold | Plasma adiponectin (Zucker fatty rats): 6.53 µg/mL and 6.53 ± 0.54 µg/mL
